From patent US9862712B2, “Benzimidazole based EGFR inhibitors” (COUNCIL OF SCIENTIFIC & INDUSTRIAL RESEARCH, priority 2014, dated 2018)
“Also recorded” adds a separate entry of the source.

Tests used:
MCF-7 Cell line = test: MTT cell proliferation assay, MCF-7 Cell line; type: cell-based; details: for viability at 0.01 µM / viability at 0.1 µM / viability at 2.5 µM / viability at 5 µM / viability at 10 µM: Homo sapiens, MCF7, 72 h, MTT; for viability at 0.01 µM: MCF-7, 0.01 μM; for viability at 0.1 µM: MCF-7, 0.1 μM; for viability at 2.5 µM: MCF-7, 2.5 μM; for viability at 5 µM: MCF-7, 5 μM; for viability at 10 µM: MCF-7, 10 μM
Protocol: (§1) 1. Protocol Followed for Anti Cancer Activity and Results, Cell Proliferation Assays: Cell lines used herein were purchased from NCCS (National Center for Cell Sciences) Pune, India. Invitro Activity was performed in NCL (National Chemical Laboratory) Pune. Each cell line was plated in 96-well microtiter plates (10,000 cells per well), and serial dilutions of indicated compounds were added. At the end of the incubation period (72 h at 37° C.), cell viability was determined by a tetrazolium dye, MTT (3-(4,5-dimethylthiazol-2-yl)-2,5-diphenyl tetrazolium bromide) (Promega, USA). The formazan crystals were dissolved in DMSO, and the absorbance at 600 nm was recorded using an ELISA plate reader. IC50 values were calculated using nonlinear regression and defined as the concentration needed for a 50% reduction in absorbance of treated versus untreated control cells.
Table 4 indicates anticancer activity against A549 Cell line. The Gefitinib was used as standard and % cell Viable was measured compared to control. The procedure used was MTT assay as mentioned. […] By using the above procedure, the compounds of the invention were tested on MCF-7 Cell line and the results obtained are presented below in table 5, Refer FIG. 2.

HOP-62 Cell line = test: MTT cell proliferation assay, HOP-62 Cell line; type: cell-based; details: for viability at 0.01 µM / viability at 0.1 µM / viability at 2.5 µM / viability at 5 µM / viability at 10 µM: Homo sapiens, 72 h, MTT; for viability at 0.01 µM: HOP-62, 0.01 μM; for viability at 0.1 µM: HOP-62, 0.1 μM; for viability at 2.5 µM: HOP-62, 2.5 μM; for viability at 5 µM: HOP-62, 5 μM; for viability at 10 µM: HOP-62, 10 μM
Protocol: as §1
By using the above procedure, the compounds of the invention were tested on HOP-62 Cell line and the results obtained are presented below in table 6, Refer FIG. 3.

[1] = test system: A549 Cell line (Lung Cancer Cell line); test: MTT cell proliferation assay, A549 Cell line; type: cell-based, human; details: for viability at 0.01 µM / viability at 0.1 µM / viability at 2.5 µM / viability at 5 µM / viability at 10 µM: Homo sapiens, 72 h, MTT; for viability at 0.01 µM: A549, 0.01 μM; for viability at 0.1 µM: A549, 0.1 μM; for viability at 2.5 µM: A549, 2.5 μM; for viability at 5 µM: A549, 5 μM; for viability at 10 µM: A549, 10 μM
Protocol: as §1
By using the above procedure, the compounds of the invention were tested on A549 Cell line and the results obtained are presented below in table 4, Refer FIG. 1.

Log P (Table 3) = type: physicochemical; details: no method given
[2] = test system: U87MG Cell line (Glioblastoma cell line); test: MTT cell proliferation assay, U87MG Cell line; type: cell-based; details: for viability at 0.01 µM / viability at 0.1 µM / viability at 2.5 µM / viability at 5 µM / viability at 10 µM: Homo sapiens, U-87 MG, U87MG, 72 h, MTT
Protocol: as §1
By using the above procedure, the compounds of the invention were tested on U87MG Cell line (glioblastoma cell line) and the results obtained are presented below in table 8, Refer FIG. 5.

MDA-MB-436 Cell line = test: MTT cell proliferation assay, MDA-MB-436 Cell line; type: cell-based; details: for viability at 0.01 µM / viability at 0.1 µM / viability at 2.5 µM / viability at 5 µM / viability at 10 µM: Homo sapiens, 72 h, MTT; for viability at 0.01 µM: MDA-MB-436, 0.01 μM; for viability at 0.1 µM: MDA-MB-436, 0.1 μM; for viability at 2.5 µM: MDA-MB-436, 2.5 μM; for viability at 5 µM: MDA-MB-436, 5 μM; for viability at 10 µM: MDA-MB-436, 10 μM
Protocol: as §1
By using the above procedure, the compounds of the invention were tested on MDA-MB-436 Cell line and the results obtained are presented below in table 7, Refer FIG. 4.

[3] = compared among 15 molecules and with Gefitinib, listed as M1

Row | Structure (SMILES) | viability at 0.01 µM (MCF-7 Cell line) | viability at 0.1 µM (MCF-7 Cell line) | viability at 2.5 µM (MCF-7 Cell line) | viability at 5 µM (MCF-7 Cell line) | viability at 10 µM (MCF-7 Cell line) | viability at 0.01 µM (HOP-62 Cell line) | viability at 0.1 µM (HOP-62 Cell line) | viability at 2.5 µM (HOP-62 Cell line) | viability at 5 µM (HOP-62 Cell line) | viability at 10 µM (HOP-62 Cell line) | viability at 0.01 µM [1] | viability at 0.1 µM [1] | viability at 2.5 µM [1] | viability at 5 µM [1] | viability at 10 µM [1] | viability at 0.01 µM [2] | viability at 0.1 µM [2] | viability at 2.5 µM [2] | viability at 5 µM [2] | viability at 10 µM [2] | other results
1 | Nc1nc(Nc2ccc([N+](=O)[O-])cc2)sc1-c1nc2ccccc2[nH]1 [Molecule S4-M3, 5-(1H-benzo[d]imidazol-2-yl)-N^2-(4-nitrophenyl)thiazole-2,4-diamine] | 99.6% | 92.4% | 90.8% | 84.8% | 72.8% | 99.6% | 94.4% | 90.8% | 90.8% | 88.8% | 97.6% | 90.4% | 81.8% | 71.8% | 62.8% | 96.6% | 82.4% | 69.8% | 55.8% | 30.8% | melting point: 260 to 262 °C; logP (Log P (Table 3)): 3.32; viability at 0.01 µM (MDA-MB-436 Cell line): 99.6%; viability at 0.1 µM (MDA-MB-436 Cell line): 94.4%; viability at 2.5 µM (MDA-MB-436 Cell line): 90.8%; viability at 5 µM (MDA-MB-436 Cell line): 79.8%; viability at 10 µM (MDA-MB-436 Cell line): 66.8%
2 | Cc1cc(C)c(Nc2nc(N)c(-c3nc4ccccc4[nH]3)s2)c(C)c1 [Molecule S4-M6, 5-(1H-benzo[d]imidazol-2-yl)-N^2-mesitylthiazole-2,4-diamine] | 112% | 100% | 101% | 100% | 100% | 103% | 100% | 100% | 100% | 91% | 92.3% | 85.1% | 72% | 61% | 50% | 91.3% | 82.1% | 70% | 59% | 42.4% | melting point: 218 to 220 °C; logP (Log P (Table 3)): 2.11; viability at 0.01 µM (MDA-MB-436 Cell line): 116%; viability at 0.1 µM (MDA-MB-436 Cell line): 112%; viability at 2.5 µM (MDA-MB-436 Cell line): 110%; viability at 5 µM (MDA-MB-436 Cell line): 105%; viability at 10 µM (MDA-MB-436 Cell line): 101%
3 | COc1ccc(Nc2nc(N)c(-c3nc4ccccc4[nH]3)s2)cc1 [Molecule S4-M2, 5-(1H-benzo[d]imidazol-2-yl)-N^2-(4-methoxyphenyl)thiazole-2,4-diamine] | 97% | 95.5% | 95.5% | 90.5% | 84.5% | 99% | 93.5% | 85.5% | 77.5% | 75.5% | 95% | 89.5% | 75.5% | 60.5% | 51.5% | 93% | 86.5% | 79.5% | 68.5% | 55.5% | melting point: 224 to 226 °C; logP (Log P (Table 3)): 2.11; viability at 0.01 µM (MDA-MB-436 Cell line): 113%; viability at 0.1 µM (MDA-MB-436 Cell line): 108%; viability at 2.5 µM (MDA-MB-436 Cell line): 95.5%; viability at 5 µM (MDA-MB-436 Cell line): 93.5%; viability at 10 µM (MDA-MB-436 Cell line): 90.5%
4 | Nc1nc(Nc2ccc(Cl)cc2)sc1-c1nc2ccccc2[nH]1 [Molecule S4-M5, 5-(1H-benzo[d]imidazol-2-yl)-N^2-(4-chlorophenyl)thiazole-2,4-diamine] | 89.8% | 83.6% | 79.9% | 72.9% | 65.9% | 101% | 92.6% | 88.9% | 82.9% | 75.9% | 95.8% | 85.6% | 73.9% | 65.9% | 54.9% | 92.8% | 80.6% | 72.9% | 60.9% | 49.9% | melting point: 210 to 212 °C; logP (Log P (Table 3)): 3.99; viability at 0.01 µM (MDA-MB-436 Cell line): 99.8%; viability at 0.1 µM (MDA-MB-436 Cell line): 99.6%; viability at 2.5 µM (MDA-MB-436 Cell line): 99.9%; viability at 5 µM (MDA-MB-436 Cell line): 99.9%; viability at 10 µM (MDA-MB-436 Cell line): 98.9%
5 | Nc1nc(Nc2ccccc2)sc1-c1nc2ccccc2[nH]1 [Molecule S4-M1, 5-(1H-benzo[d]imidazol-2-yl)-N^2-phenylthiazole-2,4-diamine] | 69.8% | 60.4% | 49.1% | 42.6% | 30.9% | 54.1% | 42.1% | 34.1% | 22.1% | 12.9% | 49.1% | 39.1% | 29.1% | 15.1% | 10.9% | 40.8% | 32.4% | 23.1% | 14.6% | 8.94% | anticancer activity against MCF-7 Cell line (in words) (MCF-7 Cell line; compared among 15 molecules, listed as M1): most active; also recorded: showing Invitro activity; melting point: 268 to 270 °C; anticancer activity against HOP-62 Cell line (in words) (HOP-62 Cell line; [3]): most active; also recorded: Invitro activity comparable to standard Gefitinib; anticancer activity against A549 Cell line (in words) ([1]; compared among 15 molecules and with Gefitinib): most active; logP (Log P (Table 3)): 3.02; anticancer activity against U87-MG Cell line (in words) ([2]; compared among 15 molecules): most active; viability at 0.01 µM (MDA-MB-436 Cell line): 82.8%; viability at 0.1 µM (MDA-MB-436 Cell line): 70.4%; viability at 2.5 µM (MDA-MB-436 Cell line): 67.1%; viability at 5 µM (MDA-MB-436 Cell line): 54.6%; viability at 10 µM (MDA-MB-436 Cell line): 40.9%; anticancer activity against MDA-MB-436 Cell line (in words) (MDA-MB-436 Cell line; [3]): most active; also recorded: Invitro activity comparable to standard Gefitinib
6 | COc1ccc(Nc2nc(N)c(-c3nc4c(C)cccc4[nH]3)s2)cc1 [Molecule S4-M15, N^2-(4-methoxyphenyl)-5-(4-methyl-1H-benzo[d]imidazol-2-yl)thiazole-2,4-diamine] | 92.1% | 89.9% | 75.7% | 70.7% | 61.3% | 104% | 98.7% | 92.7% | 81.7% | 77.3% | 93.1% | 79.7% | 68.3% | 59.3% | 49.3% | 89.1% | 82.9% | 71.7% | 59.7% | 48.3% | viability at 0.01 µM (MDA-MB-436 Cell line): 96.1%; viability at 0.1 µM (MDA-MB-436 Cell line): 94.9%; viability at 2.5 µM (MDA-MB-436 Cell line): 90.7%; viability at 5 µM (MDA-MB-436 Cell line): 81.7%; viability at 10 µM (MDA-MB-436 Cell line): 71.3%
